{
  "source": "paper PMC9133015",
  "about": "(Nature Communications, 2022)",
  "experiment_in_all_cases": "Kinase inhibitor specificity profiling (Reaction Biology Corporation)",
  "assay_type_in_all_cases": "biochemical",
  "set-up_in_all_cases": "% Enzyme Activity (relative to DMSO controls): concentration or dose not given beside the values",
  "key": {"[1]": {"biological_target": "T1, panel of 370 protein kinases (Homo sapiens, UniProt P23458)", "T1 construct": "purchased Reaction Biology Corporation (assay service)", "T1 sequence (P23458 whole entry)": "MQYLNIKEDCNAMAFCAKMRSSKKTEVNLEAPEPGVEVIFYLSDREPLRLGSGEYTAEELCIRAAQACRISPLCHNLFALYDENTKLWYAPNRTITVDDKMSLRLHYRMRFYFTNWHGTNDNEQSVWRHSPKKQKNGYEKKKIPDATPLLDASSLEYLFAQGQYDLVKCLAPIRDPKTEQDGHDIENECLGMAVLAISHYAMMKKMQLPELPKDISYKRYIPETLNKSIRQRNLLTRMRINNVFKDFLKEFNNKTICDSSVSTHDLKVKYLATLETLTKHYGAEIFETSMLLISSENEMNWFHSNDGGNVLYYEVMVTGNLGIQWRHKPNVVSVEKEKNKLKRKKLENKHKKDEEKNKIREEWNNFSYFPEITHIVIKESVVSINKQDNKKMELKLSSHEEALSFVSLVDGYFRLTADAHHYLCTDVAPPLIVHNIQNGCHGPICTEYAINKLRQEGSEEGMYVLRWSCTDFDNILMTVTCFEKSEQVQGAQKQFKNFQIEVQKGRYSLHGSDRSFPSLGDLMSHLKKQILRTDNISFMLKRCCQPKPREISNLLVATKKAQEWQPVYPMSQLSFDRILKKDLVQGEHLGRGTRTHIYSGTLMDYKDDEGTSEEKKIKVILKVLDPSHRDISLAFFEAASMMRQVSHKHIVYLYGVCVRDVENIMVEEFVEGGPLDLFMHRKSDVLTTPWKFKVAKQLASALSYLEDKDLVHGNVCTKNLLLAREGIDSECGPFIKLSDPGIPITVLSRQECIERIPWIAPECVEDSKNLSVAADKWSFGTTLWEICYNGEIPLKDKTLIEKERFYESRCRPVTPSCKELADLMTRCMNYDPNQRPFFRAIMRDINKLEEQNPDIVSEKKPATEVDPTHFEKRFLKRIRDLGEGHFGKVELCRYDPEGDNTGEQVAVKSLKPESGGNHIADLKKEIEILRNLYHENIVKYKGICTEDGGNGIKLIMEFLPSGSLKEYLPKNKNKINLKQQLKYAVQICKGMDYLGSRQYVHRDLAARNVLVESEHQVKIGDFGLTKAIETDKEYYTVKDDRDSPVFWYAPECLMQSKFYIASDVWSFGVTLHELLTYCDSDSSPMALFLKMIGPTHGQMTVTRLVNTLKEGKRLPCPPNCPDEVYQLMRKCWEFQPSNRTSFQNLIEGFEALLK", "conditions": "kinase JAK1"}, "[2]": {"biological_target": "T2, panel of 370 protein kinases (Homo sapiens, UniProt O15264)", "T2 construct": "purchased Reaction Biology Corporation (assay service)", "conditions": "2 h, kinase P38d/MAPK13; read-out: % Enzyme Activity (relative to DMSO controls)"}, "[3]": {"biological_target": "T3, panel of 370 protein kinases (Homo sapiens, UniProt Q13188)", "T3 construct": "purchased Reaction Biology Corporation (assay service)", "conditions": "2 h, kinase MST2/STK3; read-out: % Enzyme Activity (relative to DMSO controls)"}, "[4]": {"biological_target": "T4, panel of 370 protein kinases (Homo sapiens, UniProt Q9NYY3)", "T4 construct": "purchased Reaction Biology Corporation (assay service)", "T4 sequence (Q9NYY3 whole entry)": "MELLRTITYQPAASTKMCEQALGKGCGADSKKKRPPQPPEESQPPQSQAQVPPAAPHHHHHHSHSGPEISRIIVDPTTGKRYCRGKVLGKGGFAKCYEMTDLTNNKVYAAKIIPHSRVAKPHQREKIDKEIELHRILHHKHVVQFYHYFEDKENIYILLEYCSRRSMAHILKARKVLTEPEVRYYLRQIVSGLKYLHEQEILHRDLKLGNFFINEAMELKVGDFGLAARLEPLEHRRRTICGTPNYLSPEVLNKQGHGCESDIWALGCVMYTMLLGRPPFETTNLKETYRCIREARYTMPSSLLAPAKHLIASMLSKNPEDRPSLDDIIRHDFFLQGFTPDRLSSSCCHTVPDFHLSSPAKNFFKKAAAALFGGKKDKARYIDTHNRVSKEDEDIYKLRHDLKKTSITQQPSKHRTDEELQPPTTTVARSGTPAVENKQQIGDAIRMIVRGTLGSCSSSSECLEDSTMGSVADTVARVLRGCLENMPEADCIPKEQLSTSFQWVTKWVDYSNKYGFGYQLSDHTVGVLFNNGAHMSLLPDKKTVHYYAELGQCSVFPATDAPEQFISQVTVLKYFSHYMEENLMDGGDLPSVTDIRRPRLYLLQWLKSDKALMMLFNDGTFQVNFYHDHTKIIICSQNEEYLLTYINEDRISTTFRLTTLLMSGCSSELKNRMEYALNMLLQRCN", "conditions": "kinase PLK2"}, "[5]": {"biological_target": "T5, panel of 370 protein kinases (Homo sapiens, UniProt Q13163)", "T5 construct": "purchased Reaction Biology Corporation (assay service)", "conditions": "2 h, kinase MEK5; read-out: % Enzyme Activity (relative to DMSO controls)"}, "[6]": {"biological_target": "T6, panel of 370 protein kinases (Homo sapiens, UniProt Q9Y6E0)", "T6 construct": "purchased Reaction Biology Corporation (assay service)", "T6 sequence (Q9Y6E0 whole entry)": "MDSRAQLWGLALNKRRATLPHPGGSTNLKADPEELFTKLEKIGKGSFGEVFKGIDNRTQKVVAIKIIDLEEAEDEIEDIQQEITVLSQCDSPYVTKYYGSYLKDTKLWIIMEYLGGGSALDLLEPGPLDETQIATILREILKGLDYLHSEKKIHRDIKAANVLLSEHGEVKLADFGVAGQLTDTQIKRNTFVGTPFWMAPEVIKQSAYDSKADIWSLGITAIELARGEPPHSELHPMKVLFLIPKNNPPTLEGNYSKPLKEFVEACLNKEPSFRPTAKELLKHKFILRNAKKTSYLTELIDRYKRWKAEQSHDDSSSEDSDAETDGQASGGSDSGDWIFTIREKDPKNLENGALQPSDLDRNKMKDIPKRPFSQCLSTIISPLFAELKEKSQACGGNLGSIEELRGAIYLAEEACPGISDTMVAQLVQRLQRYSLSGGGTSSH", "conditions": "kinase MST3/STK24"}, "[7]": {"biological_target": "T7, panel of 370 protein kinases (Homo sapiens, UniProt P36888)", "T7 construct": "purchased Reaction Biology Corporation (assay service)", "conditions": "2 h, kinase FLT3; read-out: % Enzyme Activity (relative to DMSO controls)"}, "[8]": {"biological_target": "T8, panel of 370 protein kinases (Homo sapiens, UniProt Q16566)", "T8 construct": "purchased Reaction Biology Corporation (assay service)", "conditions": "2 h, kinase CAMK4; read-out: % Enzyme Activity (relative to DMSO controls)"}, "[9]": {"biological_target": "T9, panel of 370 protein kinases (Homo sapiens, UniProt Q9UPE1)", "T9 construct": "purchased Reaction Biology Corporation (assay service)", "T9 sequence (Q9UPE1 whole entry)": "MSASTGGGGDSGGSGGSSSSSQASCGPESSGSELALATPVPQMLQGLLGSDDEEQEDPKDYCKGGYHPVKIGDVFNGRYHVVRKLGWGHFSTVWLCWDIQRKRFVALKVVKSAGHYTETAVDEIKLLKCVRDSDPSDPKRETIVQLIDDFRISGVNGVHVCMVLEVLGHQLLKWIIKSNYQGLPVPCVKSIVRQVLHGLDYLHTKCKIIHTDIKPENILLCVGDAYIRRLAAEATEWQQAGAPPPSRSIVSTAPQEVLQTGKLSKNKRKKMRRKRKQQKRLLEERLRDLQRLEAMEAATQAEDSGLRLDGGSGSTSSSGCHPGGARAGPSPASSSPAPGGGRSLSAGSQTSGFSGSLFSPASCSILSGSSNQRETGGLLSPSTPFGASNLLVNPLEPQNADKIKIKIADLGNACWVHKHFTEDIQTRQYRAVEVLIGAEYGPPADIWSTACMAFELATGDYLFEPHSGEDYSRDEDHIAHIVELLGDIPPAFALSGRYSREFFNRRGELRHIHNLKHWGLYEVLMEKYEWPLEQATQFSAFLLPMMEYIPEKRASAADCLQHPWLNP", "conditions": "2 h, kinase MSSK1/STK23; read-out: % Enzyme Activity (relative to DMSO controls)"}, "[10]": {"biological_target": "T10, panel of 370 protein kinases (Homo sapiens, UniProt Q9BZL6)", "T10 construct": "purchased Reaction Biology Corporation (assay service)", "conditions": "2 h, kinase PKD2/PRKD2; read-out: % Enzyme Activity (relative to DMSO controls)"}, "[11]": {"biological_target": "T11, panel of 370 protein kinases (Homo sapiens, UniProt P00533)", "T11 construct": "purchased Reaction Biology Corporation (assay service)", "T11 sequence (P00533 25-1210)": "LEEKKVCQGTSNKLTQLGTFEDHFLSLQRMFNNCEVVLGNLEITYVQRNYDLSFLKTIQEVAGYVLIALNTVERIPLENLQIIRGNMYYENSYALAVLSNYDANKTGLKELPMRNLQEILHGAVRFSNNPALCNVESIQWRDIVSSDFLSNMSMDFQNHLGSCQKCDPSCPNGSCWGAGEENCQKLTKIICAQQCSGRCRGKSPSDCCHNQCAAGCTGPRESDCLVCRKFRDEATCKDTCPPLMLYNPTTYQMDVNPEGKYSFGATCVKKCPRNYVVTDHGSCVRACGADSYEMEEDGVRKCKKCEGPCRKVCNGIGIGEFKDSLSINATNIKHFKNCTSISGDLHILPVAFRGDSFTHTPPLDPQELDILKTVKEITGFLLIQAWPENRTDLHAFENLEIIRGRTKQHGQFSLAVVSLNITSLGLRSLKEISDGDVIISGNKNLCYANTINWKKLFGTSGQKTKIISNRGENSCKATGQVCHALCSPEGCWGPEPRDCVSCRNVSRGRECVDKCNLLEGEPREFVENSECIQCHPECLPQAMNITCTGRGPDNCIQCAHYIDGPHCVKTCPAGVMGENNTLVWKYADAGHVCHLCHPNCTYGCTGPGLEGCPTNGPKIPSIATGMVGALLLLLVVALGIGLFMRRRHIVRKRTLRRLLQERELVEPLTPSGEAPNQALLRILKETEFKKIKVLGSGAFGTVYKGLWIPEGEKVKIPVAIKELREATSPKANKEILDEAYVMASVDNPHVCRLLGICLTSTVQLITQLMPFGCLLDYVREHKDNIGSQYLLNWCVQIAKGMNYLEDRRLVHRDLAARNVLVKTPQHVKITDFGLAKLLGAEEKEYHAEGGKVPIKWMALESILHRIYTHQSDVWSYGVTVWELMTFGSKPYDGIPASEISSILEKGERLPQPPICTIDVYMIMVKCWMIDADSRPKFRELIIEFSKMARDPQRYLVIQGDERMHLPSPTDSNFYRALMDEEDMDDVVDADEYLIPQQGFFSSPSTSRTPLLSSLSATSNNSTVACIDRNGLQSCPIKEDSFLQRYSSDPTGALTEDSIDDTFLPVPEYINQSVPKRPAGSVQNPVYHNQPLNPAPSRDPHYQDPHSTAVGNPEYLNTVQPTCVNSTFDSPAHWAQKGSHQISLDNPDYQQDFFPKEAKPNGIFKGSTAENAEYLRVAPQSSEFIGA", "conditions": "kinase EGFR"}, "[12]": {"biological_target": "T12, panel of 370 protein kinases (Homo sapiens, UniProt Q6P2M8)", "T12 construct": "purchased Reaction Biology Corporation (assay service)", "T12 sequence (Q6P2M8 whole entry)": "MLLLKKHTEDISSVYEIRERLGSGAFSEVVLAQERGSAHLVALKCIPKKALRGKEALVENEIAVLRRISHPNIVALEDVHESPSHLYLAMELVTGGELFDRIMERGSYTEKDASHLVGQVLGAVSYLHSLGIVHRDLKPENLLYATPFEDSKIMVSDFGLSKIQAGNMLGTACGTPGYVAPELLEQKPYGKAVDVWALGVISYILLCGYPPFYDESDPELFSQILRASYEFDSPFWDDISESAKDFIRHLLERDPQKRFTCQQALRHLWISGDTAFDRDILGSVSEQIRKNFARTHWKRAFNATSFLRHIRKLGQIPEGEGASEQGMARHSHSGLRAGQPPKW", "conditions": "kinase CAMK1b"}, "[13]": {"biological_target": "T13, panel of 370 protein kinases (Homo sapiens, UniProt Q9BWU1)", "T13 construct": "purchased Reaction Biology Corporation (assay service)", "T13 sequence (Q9BWU1 whole entry)": "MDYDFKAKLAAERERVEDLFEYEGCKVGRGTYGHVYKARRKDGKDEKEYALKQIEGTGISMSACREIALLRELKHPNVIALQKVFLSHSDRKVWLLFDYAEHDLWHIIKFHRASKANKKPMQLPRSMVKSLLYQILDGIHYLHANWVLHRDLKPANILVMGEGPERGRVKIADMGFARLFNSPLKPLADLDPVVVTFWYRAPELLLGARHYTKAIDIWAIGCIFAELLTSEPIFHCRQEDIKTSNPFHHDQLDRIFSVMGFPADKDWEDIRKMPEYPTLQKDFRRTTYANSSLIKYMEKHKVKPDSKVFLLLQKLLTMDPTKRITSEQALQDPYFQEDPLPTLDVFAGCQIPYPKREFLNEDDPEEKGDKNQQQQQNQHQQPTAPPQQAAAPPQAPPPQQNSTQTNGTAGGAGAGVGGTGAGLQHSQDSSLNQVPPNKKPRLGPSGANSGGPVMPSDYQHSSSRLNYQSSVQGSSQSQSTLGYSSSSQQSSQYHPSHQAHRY", "conditions": "kinase CDK19/cyclin C"}, "[14]": {"biological_target": "T14, panel of 370 protein kinases (Homo sapiens, UniProt Q9BYP7)", "T14 construct": "purchased Reaction Biology Corporation (assay service)", "conditions": "2 h, kinase WNK3; read-out: % Enzyme Activity (relative to DMSO controls)"}, "[15]": {"biological_target": "T15, panel of 370 protein kinases (Homo sapiens, UniProt Q7KZI7)", "T15 construct": "purchased Reaction Biology Corporation (assay service)", "conditions": "2 h, kinase MARK2/PAR-1Ba; read-out: % Enzyme Activity (relative to DMSO controls)"}, "[16]": {"biological_target": "T16, panel of 370 protein kinases (Homo sapiens, UniProt Q00536)", "T16 construct": "purchased Reaction Biology Corporation (assay service)", "conditions": "2 h, kinase CDK16/cyclin Y (PCTAIRE); read-out: % Enzyme Activity (relative to DMSO controls)"}, "[17]": {"biological_target": "T17, panel of 370 protein kinases (Homo sapiens, UniProt Q07002)", "T17 construct": "purchased Reaction Biology Corporation (assay service)", "conditions": "2 h, kinase CDK18/cyclin Y (PCTK3); read-out: % Enzyme Activity (relative to DMSO controls)"}, "[18]": {"biological_target": "T18, panel of 370 protein kinases (Homo sapiens, UniProt Q9HC98)", "T18 construct": "purchased Reaction Biology Corporation (assay service)", "conditions": "2 h, kinase NEK6; read-out: % Enzyme Activity (relative to DMSO controls)"}, "[19]": {"biological_target": "T19, panel of 370 protein kinases (Homo sapiens, UniProt Q02763)", "T19 construct": "purchased Reaction Biology Corporation (assay service)", "conditions": "2 h, kinase TIE2/TEK; read-out: % Enzyme Activity (relative to DMSO controls)"}, "[20]": {"biological_target": "T20, panel of 370 protein kinases (Homo sapiens, UniProt P07947)", "T20 construct": "purchased Reaction Biology Corporation (assay service)", "conditions": "2 h, kinase YES/YES1; read-out: % Enzyme Activity (relative to DMSO controls)"}, "[21]": {"biological_target": "T21, panel of 370 protein kinases (Homo sapiens, UniProt Q13470)", "T21 construct": "purchased Reaction Biology Corporation (assay service)", "conditions": "2 h, kinase TNK1; read-out: % Enzyme Activity (relative to DMSO controls)"}, "[22]": {"biological_target": "T22, panel of 370 protein kinases (Homo sapiens, UniProt Q08345)", "T22 construct": "purchased Reaction Biology Corporation (assay service)", "conditions": "2 h, kinase DDR1; read-out: % Enzyme Activity (relative to DMSO controls)"}},
  "note": "Values joined by “and” are separate entries in the source; they are usually repeats but may differ in a detail not shown here. Equal entries are not always repeated.",
  "data": [
    {"compound": "CCN1CCN(C(=O)c2ccc(Nc3ncc(F)c(-c4ccc5nc(N(C)C)sc5c4)n3)nc2)CC1", "note": "[YK-2-69]", "values": [
      {"measurement": "% Enzyme Activity (relative to DMSO controls)", "setting": "[1]", "value": "103.96% and 100.40%"},
      {"measurement": "remaining activity at 1 µM", "setting": "[2]", "value": 102, "unit": "%"},
      {"measurement": "remaining activity at 1 µM", "setting": "[3]", "value": 98.9, "unit": "%"},
      {"measurement": "% Enzyme Activity (relative to DMSO controls)", "setting": "[4]", "value": "98.55% and 92.68%"},
      {"measurement": "remaining activity at 1 µM", "setting": "[5]", "value": 96.3, "unit": "%"},
      {"measurement": "% Enzyme Activity (relative to DMSO controls)", "setting": "[6]", "value": "107.35% and 104.50%"},
      {"measurement": "remaining activity at 1 µM", "setting": "[7]", "value": 92.7, "unit": "%"},
      {"measurement": "remaining activity at 1 µM", "setting": "[8]", "value": 101, "unit": "%"},
      {"measurement": "remaining activity at 1 µM", "setting": "[9]", "value": 96.3, "unit": "%"},
      {"measurement": "remaining activity at 1 µM", "setting": "[10]", "value": 80.8, "unit": "%"},
      {"measurement": "% Enzyme Activity (relative to DMSO controls)", "setting": "[11]", "value": "109.51% and 108.13%"},
      {"measurement": "% Enzyme Activity (relative to DMSO controls)", "setting": "[12]", "value": "94.21% and 93.36%"},
      {"measurement": "% Enzyme Activity (relative to DMSO controls)", "setting": "[13]", "value": "59.42% and 58.05%"},
      {"measurement": "remaining activity at 1 µM", "setting": "[14]", "value": 98.9, "unit": "%"},
      {"measurement": "remaining activity at 1 µM", "setting": "[15]", "value": 83.2, "unit": "%"},
      {"measurement": "remaining activity at 1 µM", "setting": "[16]", "value": 85.7, "unit": "%"},
      {"measurement": "remaining activity at 1 µM", "setting": "[17]", "value": 99.1, "unit": "%"},
      {"measurement": "remaining activity at 1 µM", "setting": "[18]", "value": 103, "unit": "%"},
      {"measurement": "remaining activity at 1 µM", "setting": "[19]", "value": 87.6, "unit": "%"},
      {"measurement": "remaining activity at 1 µM", "setting": "[20]", "value": 108, "unit": "%"},
      {"measurement": "remaining activity at 1 µM", "setting": "[21]", "value": 95.3, "unit": "%"},
      {"measurement": "remaining activity at 1 µM", "setting": "[22]", "value": 86.2, "unit": "%"}
    ]}
  ]
}
